Columns and labels:
HeLa cells [1] = test: Immunofluorescence staining and confocal microscopy (MIF and AIF nuclear translocation); format: cell-based
Method: Next, we investigated the mechanism by which 6y protects genome DNA. Considering that […] is a crucial step in parthanatos, we tested if 6y interferes with MIF/AIF binding in vitro. […] Under control conditions, MIF and AIF are mainly located in the cytosol. Upon MNNG treatment, both MIF and AIF translocated to the nucleus.
Immunofluorescence staining was applied to cells to determine the nuclear trans-localization of AIF and MIF. HeLa cells were seeded onto a coverslip and treated with or without 100 μM 6y for 3 h. Then, parthanatos was induced by MNNG (50 μM, 15 min). The same amount of medium in the absence of MNNG was added for the negative control group. After overnight incubation, the cells were fixed with methanol and blocked with 2% BSA in 0.1% PBS-T. AIF and MIF were detected by AIF Monoclonal Antibody (7F7AB10, Invitrogen) and MIF Polyclonal Antibody (PA5-27343, Invitrogen), respectively. Then, AIF and MIF primary antibodies were visualized by Alexa Fluor 647 conjugated anti-Mouse IgG (Invitrogen) and Alexa Fluor 488 conjugated anti-rabbit IgG (Cell Signaling Technology, Leiden, the Netherlands), respectively. After washing, coverslips were mounted onto objective slides with an anti-fading mounting medium with NucBlue stain (Invitrogen). The pictures were acquired using a Leica SP8 confocal laser scanning microscope and analyzed by ImageJ.

MIF [2] = molecular target: T1, MIF (Homo sapiens, UniProt P14174); test: Jump dilution assay (reversibility of binding); format: biochemical; details: 25 μM 6y, 10 min preincubation, 20-fold dilution, 20 min
T1 construct: made in house; host or cells: Escherichia coli BL21, pET-20b(p) plasmid
T1 sequence (P14174 2-115 limits assumed): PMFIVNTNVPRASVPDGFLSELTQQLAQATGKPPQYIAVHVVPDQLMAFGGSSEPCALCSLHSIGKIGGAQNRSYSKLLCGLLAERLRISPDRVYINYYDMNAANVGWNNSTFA
Method: To investigate the reversibility of binding, we performed the activity recovery experiment based on pre-incubation of MIF with the inhibitor at saturated concentration followed by jump dilution. The experiment aimed to study the reversibility of the MIF complex with 6y; thus, MIF was preincubated with 25 μM 6y for 10 min before 20-fold dilution and then tested for residual enzyme activity. After 20 min of residence time, MIF tautomerase activity recovered comparably to that expected for instantaneously reversible inhibitors (Figure 4b).
The solution of the enzyme (1.4 μM) was preincubated with a saturating concentration of inhibitor 6y (25 μM) for 10 min. Then, the enzyme–inhibitor mixture was diluted 20-fold with boric acid buffer, then 50 μL of the mixture was mixed with 50 μL of 2 mM PP solution in ammonium acetate buffer, and recovery of the activity was measured over 20 min. In the control groups, no enzyme/inhibitor was added.

MIF [3] = molecular target: T1, MIF; test: MIF tautomerase activity assay (PP substrate, UV absorbance at 300 nm); format: biochemical
Method: Recombinant human MIF with a C-terminal His-tag was expressed and purified following methods published previously.[47] The inhibitory potency for MIF tautomerase activity of the 1-phenyl-1H-1,2,3-triazole-4-carboxamides was measured after pre-incubation with MIF. The MIF-catalyzed PP tautomerization was measured by the corresponding change in UV absorbance over the first 3 min of the reaction.[48] Initial screening of the inhibitory potency was performed at 10 μM inhibitor concentration.
Inhibition of the tautomerase activity and kinetics of MIF was measured using […] (PP) as a substrate. A stock solution was prepared by mixing PP in 50 mM ammonium acetate buffer and adjusted to pH 6.0 using 1.0 M NaOH to provide a concentration of 20 mM. This solution was incubated overnight at 37 °C to allow equilibration of the keto and enol forms and then stored at 4 °C. For the assay, MIF stock solution (10 μL, 70 μM) was diluted in 20 mL of the boric acid buffer (435 mM H3BO3, 1 mM EDTA, pH 6.2) to provide 35 nM solution. The enzyme activity was determined by premixing 192 μL of the MIF dilution with 8 μL of the inhibitors dissolved in DMSO (1 mM). This mixture was preincubated for 10 min. Next, 50 μL of the mixture was mixed with 50 μL of 2 mM PP solution in ammonium acetate buffer. Subsequently, MIF tautomerase activity was monitored by the formation of the borate–enol complex, which was measured by the increase in UV absorbance at 300 nm. The increase in UV absorbance was measured over the first 10 min of incubation using a BioTek Synergy H1 Hybrid plate reader. MIF tautomerase activity in the presence of blank DMSO was set to 100% enzyme activity. […] Data from the first 3 min were used to calculate the initial velocities. All of the graphs were prepared in GraphPad Prism.
For the IC50 measurements, 1 mM solutions of the compounds were double-diluted 10 times in DMSO and subsequently, the MIF tautomerase activity was determined by premixing 190 μL of the MIF dilution with 10 μL of the inhibitors. This mixture was preincubated for 10 min and mixed with the 2 mM PP solution as described above.

[4] = Solubility observation in the MST experiment; format: physicochemical; details: at concentrations higher than 1000 μM, PBS-T with 5% DMSO
Method: A microscale thermophoresis (MST) assay was performed to confirm the binding of 6y to MIF. […] Overall, we concluded that 6y binds reversibly to an allosteric binding site that affects MIF tautomerase activity.

MIF/AIF binding = molecular target: T2, MIF/AIF binding (Homo sapiens, UniProt P14174); test: MIF/AIF binding ELISA; details: MIF-coated plate, his-tagged AIF 4 μM
T2 construct: host or cells: Escherichia coli BL21 (MIF)
T2 sequence (P14174 2-115 limits assumed): T1 sequence (P14174 2-115 limits assumed)
Method: Next, we investigated the mechanism by which 6y protects genome DNA. Considering that […] is a crucial step in parthanatos, we tested if 6y interferes with MIF/AIF binding in vitro. […] Under control conditions, MIF and AIF are mainly located in the cytosol. […] Human recombinant untagged MIF was diluted in the binding buffer (Tris-HCl 100 mM, 5 mM MgCl2, 150 mM NaCl, pH 8.5) to a final concentration of 250 nM. 100 μL of MIF solution was used to coat each well of a high-binding 96-well plate overnight at 4 °C. […] After 2 h incubation, the plate was washed three times with washing buffer and incubated with anti-poly-Histidine–peroxidase antibody (Sigma, Amsterdam, the Netherlands) for 30 min. After washing, 100 μL of mixed HRP substrate reagent (R&D Systems, Minneapolis) was added, and the colorizing reaction was stopped by adding 100 μL of 1N sulfuric acid. The absorbance at 450 nm was determined with the correction at […] via a Synergy H1 plate reader.

HeLa cells [5] = test: Cell morphology after MNNG treatment; format: cell-based; details: pretreatment with 6y, dose- and time-dependent
Text: In addition, cellular morphology was investigated to see if the MIF inhibitor 6y restores the original phenotype.

## O=C(Nc1ccccc1)c1ccc(-n2cc(C(=O)NCc3cccs3)nn2)cc1 [Compound 6y, 1-(4-(Phenylcarbamoyl)phenyl)-N-(thiophen-2-ylmethyl)-1H-1,2,3-triazole-4-carboxamide]
HeLa cells [1]; 100 μM 6y, MNNG 50 μM 15 min
  AIF nuclear translocation upon MNNG stimulation: uninfluenced
  MIF nuclear translocation upon MNNG stimulation: blocks MIF nuclear translocation
HeLa cells [1]; without MNNG
  MIF localization under control conditions: did not affect MIF localization
MIF [2]
  Reversibility of binding to MIF: reversible
MIF [3]; 10 μM inhibitor, activity without inhibitor set to 100%, mean, n = 3
  remaining activity at 10 µM: 12%
MIF [3]; PP as substrate, 10 min preincubation, read-out: IC50, inhibition of MIF tautomerase activity
  IC50: 1.7 ± 0.1 µM
[4]
  Solubility: limited solubility
MIF/AIF binding
  IC50: 12.3 µM
HeLa cells [5]
  Restoration of original cell phenotype after MNNG: mainly (but not completely) restored

Source: article PMC10350922, “Allosteric Inhibitors of Macrophage Migration Inhibitory Factor (MIF) Interfere with Apoptosis-Inducing Factor (AIF) Co-Localization to Prevent Parthanatos” (Journal of Medicinal Chemistry, 2023)
